The NIST ThermoML archive (doi:10.1021/acs.jced.8b00590)
± gives the expanded uncertainty stated by the source.

Conditions: Liquid; for vapor or sublimation pressure: Ebulliometric method (Recirculating still); for mass density / viscosity: 101.3 kPa; for mass density: Vibrating tube method; for viscosity: Falling or rolling sphere viscometry

Clc1ccccc1Cl [1,2-dichlorobenzene]
Conditions	vapor or sublimation pressure [kPa]
360.41 K	4.86 ± 0.2
377.35 K	9.95 ± 0.4
388.41 K	14.98 ± 0.61
396.96 K	20.04 ± 0.42
403.4 K	24.99 ± 0.53
408.91 K	30 ± 0.63
414.16 K	35.02 ± 0.73
418.75 K	40.02 ± 0.83
422.87 K	45.05 ± 0.94
429.99 K	55.03 ± 1.1
433.29 K	59.97 ± 1.2
438.87 K	69.93 ± 1.4
443.92 K	79.98 ± 1.6
448.94 K	90.2 ± 1.9
451.11 K	95.11 ± 2
452.62 K	98.36 ± 2

CCCCC#N [pentanenitrile]
Conditions	mass density [kg/m3]	vapor or sublimation pressure [kPa]	viscosity [mPa·s]
283.15 K	807.7 ± 2.4	–	–
293.15 K	799.1 ± 2.4	–	0.7191 ± 0.009
303.15 K	790.4 ± 2.4	–	–
313.15 K	781.7 ± 2.4	–	0.5654 ± 0.0071
323.15 K	772.9 ± 2.3	–	–
329.35 K	–	5 ± 0.2	–
333.15 K	764.2 ± 2.3	–	0.4567 ± 0.0057
344.89 K	–	9.9 ± 0.4	–
345.13 K	–	10 ± 0.4	–
362.77 K	–	20 ± 0.4	–
374.08 K	–	30 ± 0.6	–
386.22 K	–	45 ± 0.9	–
395.4 K	–	60 ± 1.3	–
407.76 K	–	86.4 ± 1.8	–
411.12 K	–	95 ± 2	–
412.96 K	–	100 ± 2.1	–
